Assay results as given in patent US11414416B1, “Compounds and uses thereof” (Foghorn Therapeutics Inc., priority 2019, dated 2022).
pIC50: −log10 of the molar value.

Assays:
BRD9 bromodomain = BRD9 bromodomain (Homo sapiens (Human), UniProt Q9H8M2); experiment: BRD9 bromodomain TR-FRET competition binding assay; settings: Table 4; competition with biotinylated ligand, 3 nM Flag-BRD9, 90 minutes
Procedure, shortened: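 TEV-cleaved Flag-BRD9 (P133-K239, 3 nM) competed against 3.75 nM biotinylated ligand, with 7.5 nM APC-streptavidin and 0.2 nM Eu-W1024 anti-FLAG, in HEPES pH 7.4, NaCl, TCEP, Tween-20, BSA. Compounds were serially diluted 3-fold; after 90 min at room temperature the 665/615 nm emission ratio was read.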

[1] = target: Nanoluciferase-BRD9 fusion protein (Homo sapiens (Human), UniProt Q9H8M2); experiment: SYO1 BRD9 NanoLuc degradation assay; format: cell-based; settings: Table 5A, SYO-1 cells expressing 3×FLAG-NLuc-BRD9, 6 hours; for DC50: read-out: SYO1 BRD9-NanoLuc degradation IC50
Procedure, shortened: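 Degradation was read as loss of nanoluciferase signal (Nano-Glo) after 6 h compound exposure in a stable SYO-1 line carrying 3×FLAG-NLuc-BRD9 (8000 cells/well). Normalised between DMSO (high) and a 1 μM known BRD9 degrader (low).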

Nanoluciferase-BRD9 fusion protein, sequence (Q9H8M2 whole entry, the tested form may be a part): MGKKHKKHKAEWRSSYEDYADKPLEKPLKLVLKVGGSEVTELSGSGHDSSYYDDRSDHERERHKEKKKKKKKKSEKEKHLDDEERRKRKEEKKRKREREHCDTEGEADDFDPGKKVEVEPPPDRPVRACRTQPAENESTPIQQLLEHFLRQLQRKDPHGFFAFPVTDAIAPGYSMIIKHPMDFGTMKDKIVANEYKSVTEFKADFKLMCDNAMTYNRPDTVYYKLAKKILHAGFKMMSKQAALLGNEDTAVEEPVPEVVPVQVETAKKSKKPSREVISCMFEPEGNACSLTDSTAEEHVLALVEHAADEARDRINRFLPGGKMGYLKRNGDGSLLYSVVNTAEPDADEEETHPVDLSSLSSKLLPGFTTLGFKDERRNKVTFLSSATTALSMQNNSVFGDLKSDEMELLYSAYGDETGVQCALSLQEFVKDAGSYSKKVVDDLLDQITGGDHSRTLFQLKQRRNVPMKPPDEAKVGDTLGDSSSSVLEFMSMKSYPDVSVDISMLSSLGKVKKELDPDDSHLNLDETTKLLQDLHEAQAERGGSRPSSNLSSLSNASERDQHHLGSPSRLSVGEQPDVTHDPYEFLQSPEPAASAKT
BRD9 bromodomain, sequence (Q9H8M2 133-239): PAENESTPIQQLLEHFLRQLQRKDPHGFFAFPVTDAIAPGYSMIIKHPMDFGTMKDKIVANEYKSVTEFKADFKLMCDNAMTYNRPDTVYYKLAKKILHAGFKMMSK

Structure (SMILES)	pIC50 (BRD9 bromodomain)	pIC50 [1]	DC50 [1] [nM]
COc1cc(-c2cn(C)c(=O)c3cnccc23)cc(OC)c1CN(C)C(=O)CCCCN1CCOC2(CCN(c3ccc4c(c3)C(=O)N(C3CCC(=O)NC3=O)C4=O)CC2)C1 (stereo not shown) [Compound D72, N-[[2,6-dimethoxy-4-(2-methyl-1-oxo-2,7-naphthyridin-4-yl)phenyl]methyl]-5-[9-[2-(2,6-dioxopiperidin-3-yl)-1,3-dioxoisoindol-5-yl]-1-oxa-4,9-diazaspiro[5.5]undecan-4-yl]-N-methylpentanamide formic acid]	> 8.00	> 8.00	
COc1cc(-c2cn(C)c(=O)c3cnccc23)cc(OC)c1CN(C)CC(=O)NCCCCN1CCOC2(CCN(c3ccc4c(c3)C(=O)N(C3CCC(=O)NC3=O)C4=O)CC2)C1 (stereo not shown) [Compound D73, 2-([[2,6-dimethoxy-4-(2-methyl-1-oxo-2,7-naphthyridin-4-yl)phenyl]methyl](methyl)amino)-N-(4-[9-[2-(2,6-dioxopiperidin-3-yl)-1,3-dioxoisoindol-5-yl]-1-oxa-4,9-diazaspiro[5.5]undecan-4-yl]butyl)acetamide formic acid]	7.00 to 8.00	> 8.00	
COc1cc(-c2cn(C)c(=O)c3cnccc23)cc(OC)c1CNCCOCC(=O)N1CC(COc2ccc3c(c2)C(=O)N(C2CCC(=O)NC2=O)C3=O)C1 (stereo not shown) [Compound D74, 5-[(1-[2-[2-([[2,6-dimethoxy-4-(2-methyl-1-oxo-2,7-naphthyridin-4-yl)phenyl]methyl]amino)ethoxy]acetyl]azetidin-3-yl)methoxy]-2-(2,6-dioxopiperidin-3-yl)isoindole-1,3-dione formic acid]	> 8.00		100 to 1000
COc1cc(-c2cn(C)c(=O)c3cnccc23)cc(OC)c1CN1CC2(CCC2NC(=O)CCOCCOc2cccc3c2C(=O)N(C2CCC(=O)NC2=O)C3=O)C1 (stereo not shown) [Compound D84]	7.00 to 8.00	< 6.00	
COc1cc(-c2cn(C)c(=O)c3cnccc23)cc(OC)c1CN1CC2(CCN(C(=O)CCOCCOc3cccc4c3C(=O)N(C3CCC(=O)NC3=O)C4=O)CC2)C1 (stereo not shown) [Compound D85]	7.00 to 8.00	6.00 to 7.00	
COc1cc(-c2cn(C)c(=O)c3cnccc23)cc(OC)c1CN1CCC12CN(C(=O)CCOCCOc1cccc3c1C(=O)N(C1CCC(=O)NC1=O)C3=O)C2 (stereo not shown) [Compound D86]	7.00 to 8.00	6.00 to 7.00	
COc1cc(-c2cn(C)c(=O)c3cnccc23)cc(OC)c1CN1CCC2(C1)CN(C(=O)CCOCCOc1cccc3c1C(=O)N(C1CCC(=O)NC1=O)C3=O)C2 (stereo not shown) [Compound D87]	> 8.00		10 to 100
COc1cc(-c2cn(C)c(=O)c3cnccc23)cc(OC)c1CN1CCC2(CC1)CN(C(=O)CCOCCOc1cccc3c1C(=O)N(C1CCC(=O)NC1=O)C3=O)C2 (stereo not shown) [Compound D88]	> 8.00		10 to 100
COc1cc(-c2cn(C)c(=O)c3cnccc23)cc(OC)c1CN1CCC2(CCN(C(=O)CCOCCOc3cccc4c3C(=O)N(C3CCC(=O)NC3=O)C4=O)CC2)C1 (stereo not shown) [Compound D89]	> 8.00	> 8.00	
COc1cc(-c2cn(C)c(=O)c3cnccc23)cc(OC)c1CN1CCC2CCN(C(=O)CCOCCOc3cccc4c3C(=O)N(C3CCC(=O)NC3=O)C4=O)CC21 (stereo not shown) [Compound D91]	7.00 to 8.00	7.00 to 8.00	
COc1cc(-c2cn(C)c(=O)c3cnccc23)cc(OC)c1CN1CC2(CC(NC(=O)CCOCCOc3cccc4c3C(=O)N(C3CCC(=O)NC3=O)C4=O)C2)C1 (stereo not shown) [Compound D93]	> 8.00		10 to 100
COc1cc(-c2cn(C)c(=O)c3cnccc23)cc(OC)c1CN1CCC12CCN(C(=O)CCOCCOc1cccc3c1C(=O)N(C1CCC(=O)NC1=O)C3=O)C2 (stereo not shown) [Compound D95]	7.00 to 8.00	6.00 to 7.00	
COc1cc(-c2cn(C)c(=O)c3cnccc23)cc(OC)c1CN1CCC(C2CCN(C(=O)CCOCCOc3cccc4c3C(=O)N(C3CCC(=O)NC3=O)C4=O)C2)CC1 (stereo not shown) [Compound D96]	> 8.00		10 to 100
COc1cc(-c2cn(C)c(=O)c3cnccc23)cc(OC)c1CN1CCC(OC2CCN(C(=O)CCOCCOc3cccc4c3C(=O)N(C3CCC(=O)NC3=O)C4=O)CC2)CC1 (stereo not shown) [Compound D97]	> 8.00		10 to 100
COc1cc(-c2cn(C)c(=O)c3cnccc23)cc(OC)c1CN1CCC12CN(C(=O)CCOCCOc1ccc3c(c1)C(=O)N(C1CCC(=O)NC1=O)C3=O)C2 (stereo not shown) [Compound D98]	6.00 to 7.00	6.00 to 7.00	
COc1cc(-c2cn(C)c(=O)c3cnccc23)cc(OC)c1CN1CCC2(C1)CN(C(=O)CCOCCOc1ccc3c(c1)C(=O)N(C1CCC(=O)NC1=O)C3=O)C2 (stereo not shown) [Compound D99]	7.00 to 8.00	7.00 to 8.00	
COc1cc(-c2cn(C)c(=O)c3cnccc23)cc(OC)c1CN1CC2CN(C(=O)CCOCCOc3ccc4c(c3)C(=O)N(C3CCC(=O)NC3=O)C4=O)CCC21 (stereo not shown) [Compound D100]	> 8.00	> 8.00	
COc1cc(-c2cn(C)c(=O)c3cnccc23)cc(OC)c1CN1CC2(CC(NC(=O)CCOCCOc3ccc4c(c3)C(=O)N(C3CCC(=O)NC3=O)C4=O)C2)C1 (stereo not shown) [Compound D101]	> 8.00		100 to 1000
COc1cc(-c2cn(C)c(=O)c3cnccc23)cc(OC)c1CN1CCC2(CCN(C(=O)CCOCCOc3cccc4c3C(=O)N(C3CCC(=O)NC3=O)C4=O)C2)C1 (stereo not shown) [Compound D108]	> 8.00	> 8.00	

Structure (SMILES)	pIC50 (BRD9 bromodomain)	pIC50 [1]	DC50 [1] [nM]
COc1cc(-c2cn(C)c(=O)c3cnccc23)cc(OC)c1CN(C)CC1CC2(CCN(C(=O)CCOCCOc3cccc4c3C(=O)N(C3CCC(=O)NC3=O)C4=O)CC2)CO1 (stereo not shown) [Compound D109]	> 8.00		10 to 100
COc1cc(-c2cn(C)c(=O)c3cnccc23)cc(OC)c1CN(C)C1CCC12CCN(C(=O)CCOCCOc1cccc3c1C(=O)N(C1CCC(=O)NC1=O)C3=O)CC2 (stereo not shown) [Compound D110]	7.00 to 8.00	7.00 to 8.00	
COc1cc(-c2cn(C)c(=O)c3cnccc23)cc(OC)c1CN1CCC2(C[C@H]2NC(=O)CCOCCOc2cccc3c2C(=O)N(C2CCC(=O)NC2=O)C3=O)C1 (stereo partly shown) [Compound D111]	> 8.00		10 to 100
COc1cc(-c2cn(C)c(=O)c3cnccc23)cc(OC)c1CN1CCC2(C[C@@H]2NC(=O)CCOCCOc2cccc3c2C(=O)N(C2CCC(=O)NC2=O)C3=O)C1 (stereo partly shown) [Compound D112]	> 8.00		100 to 1000
COc1cc(-c2cn(C)c(=O)c3cnccc23)cc(OC)c1CN1CC2C1CCN2C(=O)CCOCCOc1cccc2c1C(=O)N(C1CCC(=O)NC1=O)C2=O (stereo not shown) [Compound D113]	> 8.00	> 8.00	
COc1cc(-c2cn(C)c(=O)c3cnccc23)cc(OC)c1CN1CCC(OC2CCN(C(=O)CCOCCOc3cccc4c3C(=O)N(C3CCC(=O)NC3=O)C4=O)C2)CC1 (stereo not shown) [Compound D114]	> 8.00		10 to 100
COc1cc(-c2cn(C)c(=O)c3cnccc23)cc(OC)c1CN1CC2(CCC2NC(=O)CCOCCOc2ccc3c(c2)C(=O)N(C2CCC(=O)NC2=O)C3=O)C1 (stereo not shown) [Compound D115]	7.00 to 8.00	6.00 to 7.00	
COc1cc(-c2cn(C)c(=O)c3cnccc23)cc(OC)c1CN1CCC2(CC1)CC(NC(=O)CCOCCOc1ccc3c(c1)C(=O)N(C1CCC(=O)NC1=O)C3=O)C2 (stereo not shown) [Compound D116]	> 8.00		10 to 100
COc1cc(-c2cn(C)c(=O)c3cnccc23)cc(OC)c1CN1CC(CCNC(=O)CCOCCOc2ccc3c(c2)C(=O)N(C2CCC(=O)NC2=O)C3=O)C1 (stereo not shown) [Compound D117]	> 8.00		100 to 1000
COc1cc(-c2cn(C)c(=O)c3cnccc23)cc(OC)c1CN1CC2(CCN(C(=O)CCOCCOc3ccc4c(c3)C(=O)N(C3CCC(=O)NC3=O)C4=O)CC2)C1 (stereo not shown) [Compound D118]	> 8.00		10 to 100
COc1cc(-c2cn(C)c(=O)c3cnccc23)cc(OC)c1CN1CCC2(CC1)CN(C(=O)CCOCCOc1ccc3c(c1)C(=O)N(C1CCC(=O)NC1=O)C3=O)C2 (stereo not shown) [Compound D119]	> 8.00		10 to 100
COc1cc(-c2cn(C)c(=O)c3cnccc23)cc(OC)c1CN1CCC2(CCN(C(=O)CCOCCOc3ccc4c(c3)C(=O)N(C3CCC(=O)NC3=O)C4=O)CC2)C1 (stereo not shown) [Compound D120]	7.00 to 8.00	7.00 to 8.00	
COc1cc(-c2cn(C)c(=O)c3cnccc23)cc(OC)c1CN1CCC2(CCN(C(=O)CCOCCOc3ccc4c(c3)C(=O)N(C3CCC(=O)NC3=O)C4=O)C2)C1 (stereo not shown) [Compound D121]	7.00 to 8.00	7.00 to 8.00	
COc1cc(-c2cn(C)c(=O)c3cnccc23)cc(OC)c1CN1CC2(CCN(C(=O)CCOCCOc3ccc4c(c3)C(=O)N(C3CCC(=O)NC3=O)C4=O)C2)C1 (stereo not shown) [Compound D122]	> 8.00	> 8.00	
COc1cc(-c2cn(C)c(=O)c3cnccc23)cc(OC)c1CN1CCC2CCN(C(=O)CCOCCOc3ccc4c(c3)C(=O)N(C3CCC(=O)NC3=O)C4=O)CC21 (stereo not shown) [Compound D123]	> 8.00	> 8.00	
COc1cc(-c2cn(C)c(=O)c3cnccc23)cc(OC)c1CN1CCC(COC2CCN(C(=O)CCOCCOc3ccc4c(c3)C(=O)N(C3CCC(=O)NC3=O)C4=O)C2)CC1 (stereo not shown) [Compound D124]	> 8.00	> 8.00	
COc1cc(-c2cn(C)c(=O)c3cnccc23)cc(OC)c1CN1CCC2(C[C@@H]2NC(=O)CCOCCOc2ccc3c(c2)C(=O)N(C2CCC(=O)NC2=O)C3=O)C1 (stereo partly shown) [Compound D125]	> 8.00		10 to 100
COc1cc(-c2cn(C)c(=O)c3cnccc23)cc(OC)c1CN1CCC2(C[C@H]2NC(=O)CCOCCOc2ccc3c(c2)C(=O)N(C2CCC(=O)NC2=O)C3=O)C1 (stereo partly shown) [Compound D126]	7.00 to 8.00	6.00 to 7.00	
COc1cc(-c2cn(C)c(=O)c3cnccc23)cc(OC)c1CN1CCC12CCN(C(=O)CCOCCOc1ccc3c(c1)C(=O)N(C1CCC(=O)NC1=O)C3=O)C2 (stereo not shown) [Compound D127]	> 8.00		100 to 1000
